Measurements reported in patent publication US20030104975A1, “Cofactor-based screening method for nuclear receptor modulators and related modulators” (priority 2001, published 2003).

Experiments:
PPARγ DE / TIF2-GST = biological target: T1, PPARγ DE / TIF2-GST (Homo sapiens, UniProt P37231); test: GST pull-down assay, PPARγ DE with TIF2-GST; assay type: binding; conditions: anti-histidine blot, rosiglitazone 10^-4 M, FMOC-L-Leu 10^-3 M, compared to DMSO
T1 construct: made in house; host or cells: E. coli BL21 (DE3) for PPARgamma, pET15b; E. coli for the GST fusion, pGex4-T1
T1 sequence (P37231 203-477 isoform P37231-2): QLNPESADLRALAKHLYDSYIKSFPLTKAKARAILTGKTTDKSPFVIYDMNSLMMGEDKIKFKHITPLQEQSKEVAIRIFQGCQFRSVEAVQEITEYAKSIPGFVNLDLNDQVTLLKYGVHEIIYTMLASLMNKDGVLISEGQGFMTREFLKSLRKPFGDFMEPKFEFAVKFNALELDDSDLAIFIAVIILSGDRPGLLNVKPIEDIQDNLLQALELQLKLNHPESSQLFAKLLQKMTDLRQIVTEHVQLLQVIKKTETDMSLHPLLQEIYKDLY
Text: (§1) The beads were then washed and the samples separated on SDS-PAGE. Blots were developed with anti-histidine antibodies.
(§2) Production of proteins. The p300Nt-GST, SRC-1-GST and TIF2-GST fusion proteins were generated by cloning the N-terminal part of the cDNA coding for the p300 protein (amino acids 2 to 516), the region comprised between amino acids 568 and 780 of SRC-1 (SEQ ID NO: 03), and the domain between amino acids 618 and 826 of TIF2 (SEQ ID NO: 01), respectively, downstream of the glutathione-S-transferase (GST) protein in the pGex4-T1 vector (Pharmacia, Orsay, France). The fusion proteins were then expressed in E. coli and purified on a glutathione affinity matrix (Pharmacia). 6×-histidine-tagged human PPAR-gamma LBD (residues 203-477 of SEQ ID NO: 06) was overproduced in E. coli BL21 (DE3) using the pET15b as an expression plasmid (Novagen, Madison, Wis.) and purified by metal ion affinity chromatography on a Co^2+-loaded HiTrap Chelating column (Pharmacia Biotech, Peapack, N.J.) followed by gel filtration chromatography on a HiLoad Supcrdex 100 column (Pharmacia). The protein concentration was determined by the Bradford method (1976, Anal Biochem 72, 248-254).
(§3) Pull-down experiments. […] The beads were then washed 4 times with pull-down buffer and boiled in 4×-sample buffer. The samples were separated by 12% acrylamide SDS-PAGE and transferred to nitrocellulose membranes.

BDGal4-hPPARγ DE / p300 = biological target: T2, BDGal4-hPPARγ DE / p300 (Homo sapiens, UniProt P37231); test: Mammalian two-hybrid assay in RK13 cells, Gal4-hPPARγ DE with p300; assay type: cell-based; conditions: 24 h, FMOC-L-Leu 10^-5M
T2 construct: expressed in transfected cells; host or cells: RK13 cells (ATCC)
T2 sequence (P37231 238-503 limits assumed): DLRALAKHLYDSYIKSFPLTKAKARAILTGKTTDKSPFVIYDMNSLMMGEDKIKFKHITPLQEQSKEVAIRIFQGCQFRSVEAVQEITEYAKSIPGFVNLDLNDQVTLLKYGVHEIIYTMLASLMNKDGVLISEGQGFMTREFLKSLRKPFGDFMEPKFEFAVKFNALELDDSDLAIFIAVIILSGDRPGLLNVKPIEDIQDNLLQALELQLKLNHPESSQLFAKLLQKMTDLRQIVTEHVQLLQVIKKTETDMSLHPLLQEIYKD
Protocol: (§4) FIG. 2: Interactions between PPAR-gamma and cofactors in cultured mammalian cells. Mammalian two-hybrid interaction between PPAR-gamma and the various co-activators in RK13 cells co-transfected with an expression vector for BDGal4-hPPARγ DE, pGL3-(Gal4)5TKLuc reporter construct, pCMV-βGal, as a control of transfection efficiency, and different expression vectors for different cofactors. Cells were grown during 24 h in the presence or absence of the indicated compound. Luciferase activity has been normalized. […] Each point was performed in triplicate. Bars not sharing similar superscripts are statistically different from each other (P<0.05, Fisher's Post-hoc analysis of 2×2 ANOVA with ligands and constructs as factors).
(§5) RK-13 cells were obtained from ATCC (Rockville, Md.). Cells were maintained in Dulbecco's modified Eagle's minimal essential medium (DMEM) supplemented with 10% fetal calf serum (FCS), L-glutamine, and antibiotics. Transfection studies with luciferase (luc.) reporter constructs were carried out as described previously (Oberfield et al., 1999, Proc Natl. Acad Sci USA 96, 6102-6106). The pGL3-(Gal4)5TKLuc reporter constructs are described elsewhere (Gelman et al., 1999, J. Biol. Chem. 274, 7681-7688). […]

PPARγ DE / p300Nt-GST = biological target: T3, PPARγ DE / p300Nt-GST (Homo sapiens, UniProt P37231); test: GST pull-down assay, PPARγ DE with p300Nt-GST; assay type: binding; conditions: anti-histidine blot, rosiglitazone 10^-4 M, FMOC-L-Leu 10^-3 M, compared to DMSO
T3 construct: made in house; host or cells: E. coli BL21 (DE3) for PPARgamma, pET15b; E. coli for the GST fusion, pGex4-T1
T3 sequence (Q09472 2-516 partner limits assumed, one chain of several): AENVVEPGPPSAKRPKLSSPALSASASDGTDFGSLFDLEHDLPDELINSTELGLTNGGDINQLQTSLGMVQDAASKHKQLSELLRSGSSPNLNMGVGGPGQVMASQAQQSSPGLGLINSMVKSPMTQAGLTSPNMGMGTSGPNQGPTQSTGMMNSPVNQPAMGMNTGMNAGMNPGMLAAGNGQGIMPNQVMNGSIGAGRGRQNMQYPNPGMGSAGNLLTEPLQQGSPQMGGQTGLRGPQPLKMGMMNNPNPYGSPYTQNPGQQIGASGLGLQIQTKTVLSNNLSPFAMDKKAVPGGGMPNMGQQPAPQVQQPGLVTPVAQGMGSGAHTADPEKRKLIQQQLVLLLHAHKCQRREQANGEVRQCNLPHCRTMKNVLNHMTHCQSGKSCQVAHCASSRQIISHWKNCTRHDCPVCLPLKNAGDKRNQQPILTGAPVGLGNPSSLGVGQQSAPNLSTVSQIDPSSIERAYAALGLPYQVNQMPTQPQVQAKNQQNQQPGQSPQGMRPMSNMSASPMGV
Text: as §1, §2, §3

[1] = biological target: T4, PPARγ DE/SRC-1-GST complexes (Homo sapiens, UniProt P37231); conditions: GST pull-down, anti-histidine blot; rosiglitazone 10^-4 M, FMOC-L-Leu 10^-3 M; compared to DMSO
T4 sequence (P37231 203-477 isoform P37231-2): T1 sequence (P37231 203-477 isoform P37231-2)
Text: as §1, §2, §3

BDGal4-hPPARγ DE / SRC-1 = biological target: T5, BDGal4-hPPARγ DE / SRC-1 (Homo sapiens, UniProt P37231); test: Mammalian two-hybrid assay in RK13 cells, Gal4-hPPARγ DE with SRC-1; assay type: cell-based; conditions: 24 h, FMOC-L-Leu 10^-5M
T5 construct: expressed in transfected cells; host or cells: RK13 cells (ATCC)
T5 sequence (Q15788 whole entry partner, one chain of several, the tested form may be a part): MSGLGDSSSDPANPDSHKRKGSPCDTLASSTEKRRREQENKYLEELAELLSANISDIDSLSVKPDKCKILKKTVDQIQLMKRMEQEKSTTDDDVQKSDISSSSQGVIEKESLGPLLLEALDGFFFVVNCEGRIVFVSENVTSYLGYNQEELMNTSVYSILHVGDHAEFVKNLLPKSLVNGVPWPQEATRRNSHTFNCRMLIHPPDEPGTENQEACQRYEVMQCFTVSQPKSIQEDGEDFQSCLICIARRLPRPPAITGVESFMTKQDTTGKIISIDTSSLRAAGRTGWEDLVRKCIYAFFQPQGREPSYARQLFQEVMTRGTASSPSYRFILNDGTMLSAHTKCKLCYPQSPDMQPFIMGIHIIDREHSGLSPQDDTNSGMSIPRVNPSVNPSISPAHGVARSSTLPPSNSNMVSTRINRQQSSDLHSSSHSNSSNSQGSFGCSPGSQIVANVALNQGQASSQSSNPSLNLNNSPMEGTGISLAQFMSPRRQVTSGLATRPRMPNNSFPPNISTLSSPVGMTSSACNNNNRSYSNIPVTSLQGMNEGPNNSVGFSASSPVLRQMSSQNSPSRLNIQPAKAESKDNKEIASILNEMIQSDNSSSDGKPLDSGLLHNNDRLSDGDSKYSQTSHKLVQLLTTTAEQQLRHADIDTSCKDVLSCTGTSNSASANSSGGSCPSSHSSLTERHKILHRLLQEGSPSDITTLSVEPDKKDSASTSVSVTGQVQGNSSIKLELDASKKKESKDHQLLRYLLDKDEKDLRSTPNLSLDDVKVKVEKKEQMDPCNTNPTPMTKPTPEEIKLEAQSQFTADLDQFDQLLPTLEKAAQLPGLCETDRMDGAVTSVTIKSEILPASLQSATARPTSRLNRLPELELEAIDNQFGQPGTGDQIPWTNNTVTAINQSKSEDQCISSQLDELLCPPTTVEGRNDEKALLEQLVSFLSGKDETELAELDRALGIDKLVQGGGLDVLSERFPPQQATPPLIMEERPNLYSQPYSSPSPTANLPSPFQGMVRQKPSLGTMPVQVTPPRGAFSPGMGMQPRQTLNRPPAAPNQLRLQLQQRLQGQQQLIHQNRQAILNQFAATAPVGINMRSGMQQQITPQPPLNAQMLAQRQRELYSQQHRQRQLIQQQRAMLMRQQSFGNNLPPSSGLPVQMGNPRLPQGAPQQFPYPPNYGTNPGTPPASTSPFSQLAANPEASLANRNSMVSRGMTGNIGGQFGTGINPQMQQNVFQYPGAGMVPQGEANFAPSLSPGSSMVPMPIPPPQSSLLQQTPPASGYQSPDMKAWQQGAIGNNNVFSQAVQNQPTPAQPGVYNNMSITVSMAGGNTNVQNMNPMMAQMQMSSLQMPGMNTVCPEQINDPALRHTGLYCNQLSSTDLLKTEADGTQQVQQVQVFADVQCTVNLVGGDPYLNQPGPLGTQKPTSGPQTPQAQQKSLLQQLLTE
Protocol: as §4, §5

3T3-L1 cells = test: 3T3-L1 adipocyte differentiation assay; assay type: cell-based, murine; conditions: FMOC-L-Leu 10^-5 M
Protocol: A: Expression of adipocyte markers during differentiation of 3T3-L1 cells treated with different PPAR-gamma agonists. Confluent 3T3-L1 cells were incubated with 2 μM insulin, 1 μM dexamethasone, and 0.25 mM isobuthyl methyl xanthine for two days. […] RNA was isolated from 3T3-L1 cells after different times of differentiation induction. Blots were hybridized with DNA probes that specifically bind to 36B4 (to control for RNA loading), lipoprotein lipase (LPL), or aP2.
Cells were stained with Oil Red O after 6 days of treatment.
3T3-L1 cells (ATCC, Rockville, Md.) were grown to confluence in medium A (Dulbecco's modified Eagle's Medium with 10% fetal calf serum, 100 units/ml penicillin, and 100 μg/ml streptomycin). Confluent cell were incubated in medium A containing 2 μM insulin, 1 μM dexamethasone, and 0.25 mM isobuthyl methyl xanthine for two days. Then, the cells were incubated in medium A in presence or absence of PPARγ agonist for 4 days, changing the medium every 2 days. Adipogenesis was evaluated by analysis of the expression of adipocyte-specific markers and by staining of lipids with Oil Red O (Chawla & Lazar, 1994, Proc. Natl. Acad. Sci. USA 91, 1786-1790).
RNA was isolated from 3T3-L1 cells by the acid guanidinium thiocyanate/phenol/chloroform method (Chomczynski & Sacchi, 1987, Anal. Biochem. 162, 156-159). Northern blot analysis of total cellular RNA was performed as described (Auwerx et al., 1989, Mol. Cell. Biol. 9, 2298-2302). Lipoprotein lipase (LPL), aP2 and 36B4 were used as probes (Lefebvre et al., 1997, Arterioscler.Thromb.Vasc.Biol. 17, 1756-1764; Laborda, 1991, Nucl. Acids Res. 19, 3998; Graves et al., 1992, Mol. Cell. Biol 12, 1202-1208).

BDGal4-hPPARγ DE / TIF2 = biological target: T6, BDGal4-hPPARγ DE / TIF2 (Homo sapiens, UniProt P37231); test: Mammalian two-hybrid assay in RK13 cells, Gal4-hPPARγ DE with TIF2; assay type: cell-based; conditions: 24 h, FMOC-L-Leu 10^-5M, rosiglitazone 10^-7M
T6 construct: expressed in transfected cells; host or cells: RK13 cells (ATCC)
T6 sequence (P37231 238-503 limits assumed): T2 sequence (P37231 238-503 limits assumed)
Protocol: as §4, §5

[2] = Northern blot, extent close to rosiglitazone 10^-7 M

Q: With `CC(C)C[C@H](NC(=O)OCC1c2ccccc2-c2ccccc21)C(=O)O` [FMOC-L-Leu, FMOC-L-leucine] as the compound, how does the “interaction between TIF2 and the PPARγ DE” value (PPARγ DE / TIF2-GST) read?
A: not with FMOC-L-Leu

Q: And the “transactivation (luciferase) in the presence of p300” value (BDGal4-hPPARγ DE / p300)?
A: no significant increase in transactivation

Q: And the “interaction between the PPARγ DE and p300Nt-GST” value (PPARγ DE / p300Nt-GST)?
A: increased the interaction

Q: And the “formation of PPARγ DE/SRC-1-GST complexes” value [1]?
A: induced the formation

Q: And the “transactivation (luciferase) in the presence of SRC-1” value (BDGal4-hPPARγ DE / SRC-1)?
A: much more pronounced and significant induction

Q: What about the “neutral lipid accumulation (Oil Red O staining)” value (3T3-L1 cells; 6 day incubation, rosiglitazone 10^-7 M) of the same compound?
A: capable of inducing neutral lipid accumulation

Q: And the “LPL mRNA levels” value (3T3-L1 cells; [2])?
A: significantly stimulated

Q: What about the “aP2 mRNA levels” value (3T3-L1 cells; [2]) of the same compound?
A: significantly stimulated

Q: What about the “transactivation (luciferase) in the presence of TIF2” value (BDGal4-hPPARγ DE / TIF2) of the same compound?
A: no significant increase in transactivation
